According to patent US20080234262A1 (Wyeth, priority 2007, published 2008):

Assays:
[1] = system: prostate line LNCap; experiment: In vitro cell culture growth assay (MTS), LNCap; assay type: cell-based, human; settings: LNCap cells, three days after drug treatment;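 note: viable cell density read by absorbance at 490 nm, growth expressed as percent of vehicle-treated cells on the same plate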
[2] = system: breast line MDA468; experiment: In vitro cell culture growth assay (MTS), MDA468; assay type: cell-based, human; settings: MDA468 cells, three days after drug treatment
In short: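 Growth measured as percent of same-plate vehicle control by MTS metabolic dye conversion (A490). Breast MDA468 and prostate LNCap cells, plated a day ahead, were exposed to compounds for 3 days.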

[3] = biological target: PI3K (Homo sapiens, UniProt P42336); experiment: Fluorescence polarization assay for PI3K; assay type: biochemical; settings: PI3Kα; read-out: PI3Kα IC50;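 note: PI3K kinase reaction on PIP2 with ATP, 30-60 min, product sensed by GST-GRP with red probe in fluorescence polarization (mP), controls without enzyme and at zero time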
PI3K, sequence (P42336 whole entry): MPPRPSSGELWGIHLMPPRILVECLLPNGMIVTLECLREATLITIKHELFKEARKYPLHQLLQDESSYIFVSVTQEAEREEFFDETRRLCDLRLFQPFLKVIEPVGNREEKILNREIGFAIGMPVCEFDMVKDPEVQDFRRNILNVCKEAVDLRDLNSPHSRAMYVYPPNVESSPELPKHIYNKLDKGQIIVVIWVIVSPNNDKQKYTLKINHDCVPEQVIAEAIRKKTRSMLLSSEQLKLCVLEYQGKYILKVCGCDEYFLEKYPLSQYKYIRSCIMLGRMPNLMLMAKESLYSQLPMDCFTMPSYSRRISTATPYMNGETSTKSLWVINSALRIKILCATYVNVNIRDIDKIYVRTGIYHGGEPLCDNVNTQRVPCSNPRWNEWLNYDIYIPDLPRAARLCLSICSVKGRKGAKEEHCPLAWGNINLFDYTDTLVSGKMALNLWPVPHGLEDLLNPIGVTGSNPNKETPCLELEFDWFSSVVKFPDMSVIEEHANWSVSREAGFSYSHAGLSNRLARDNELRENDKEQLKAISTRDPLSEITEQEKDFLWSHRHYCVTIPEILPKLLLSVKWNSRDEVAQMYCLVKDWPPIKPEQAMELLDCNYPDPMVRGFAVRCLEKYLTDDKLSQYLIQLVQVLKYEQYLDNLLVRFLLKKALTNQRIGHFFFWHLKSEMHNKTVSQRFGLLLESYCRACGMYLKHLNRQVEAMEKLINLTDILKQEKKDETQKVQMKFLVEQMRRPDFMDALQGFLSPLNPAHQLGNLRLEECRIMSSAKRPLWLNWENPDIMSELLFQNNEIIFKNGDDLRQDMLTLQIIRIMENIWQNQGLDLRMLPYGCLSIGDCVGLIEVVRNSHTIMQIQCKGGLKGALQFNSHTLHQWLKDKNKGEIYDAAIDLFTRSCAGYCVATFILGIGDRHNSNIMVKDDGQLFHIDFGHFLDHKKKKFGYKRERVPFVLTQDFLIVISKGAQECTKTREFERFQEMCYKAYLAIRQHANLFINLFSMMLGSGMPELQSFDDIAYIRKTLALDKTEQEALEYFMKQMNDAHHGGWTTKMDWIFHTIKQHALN
PI3K, sequence (P27986 whole entry partner): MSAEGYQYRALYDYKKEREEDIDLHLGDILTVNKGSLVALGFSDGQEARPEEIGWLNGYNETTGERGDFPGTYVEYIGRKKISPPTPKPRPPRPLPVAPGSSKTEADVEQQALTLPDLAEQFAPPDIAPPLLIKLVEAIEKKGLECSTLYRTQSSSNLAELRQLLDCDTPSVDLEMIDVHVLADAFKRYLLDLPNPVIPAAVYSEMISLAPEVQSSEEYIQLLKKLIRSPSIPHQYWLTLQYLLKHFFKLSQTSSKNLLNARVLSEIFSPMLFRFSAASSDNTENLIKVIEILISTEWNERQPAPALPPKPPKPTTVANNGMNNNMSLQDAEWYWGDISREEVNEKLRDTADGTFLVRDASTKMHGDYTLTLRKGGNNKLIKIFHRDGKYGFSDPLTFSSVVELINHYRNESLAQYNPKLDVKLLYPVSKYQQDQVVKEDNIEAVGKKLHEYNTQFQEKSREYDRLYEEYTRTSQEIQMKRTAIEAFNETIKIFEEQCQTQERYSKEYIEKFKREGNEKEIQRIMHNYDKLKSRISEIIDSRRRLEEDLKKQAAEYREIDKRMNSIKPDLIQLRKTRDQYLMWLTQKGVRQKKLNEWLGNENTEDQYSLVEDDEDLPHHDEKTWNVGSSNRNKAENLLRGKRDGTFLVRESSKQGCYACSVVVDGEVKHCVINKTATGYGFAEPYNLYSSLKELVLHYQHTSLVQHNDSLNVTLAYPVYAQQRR

IC50 ([1]; Homo sapiens, LNCaP, 72 h)	IC50 [3]	IC50 [1]	Compound	IC50 ([2]; Homo sapiens, 72 h)	IC50 [2]
0.0008 µM	0.004 µM		COC(=O)N1CCC(n2ncc3c(N4CCOCC4)nc(-c4ccc(NC(=O)Nc5ccc(CCNCCN)cc5)cc4)nc32)CC1 [Compound 920, methyl 4-[6-(4-{[(4-{2-[(2-aminoethyl)amino]ethyl}phenyl)carbamoyl]amino}phenyl)-4-morpholin-4-yl-1H-pyrazolo[3,4-d]pyrimidin-1-yl]piperidine-1-carboxylate]	0.3 µM	
	0.355 µM	< 0.027 µM	CCNC(=O)Nc1ccc(-c2nc(N3CCOCC3)c3cnn(C4CCN(C(=O)c5ccccc5)CC4)c3n2)cc1 [Compound 626, 1-{4-[1-(1-benzoylpiperidin-4-yl)-4-morpholin-4-yl-1H-pyrazolo[3,4-d]pyrimidin-6-yl]phenyl}-3-ethylurea]	0.038 µM	
1.7 µM	1.07 µM		COC(=O)Nc1ccc(-c2nc(N3CCOCC3)c3cnn(C4CCNCC4)c3n2)cc1 [Compound 459, methyl [4-(4-morpholin-4-yl-1-piperidin-4-yl-1H-pyrazolo[3,4-d]pyrimidin-6-yl)phenyl]carbamate]	3 µM	
	1.56 µM	22 µM	1-(4-{1-[1-(methoxymethyl)piperidin-4-yl]-4-morpholin-4-yl-1H-pyrazolo[3,4-d]pyrimidin-6-yl}phenyl)-3-methylurea [Compound 796]		30.1 µM
	0.44 µM	20 µM	c1ccc(-n2ncc3c(N4CCOCC4)nc(-c4ccc5[nH]ncc5c4)nc32)cc1 [Compound 676, 6-(1H-indazol-5-yl)-4-morpholin-4-yl-1-phenyl-1H-pyrazolo[3,4-d]pyrimidine]		> 60 µM
	0.1 µM	0.08 µM	CNC(=O)Nc1ccc(-c2nc(N3CCOCC3)c3cnn(C4CCN(C(=O)c5cccnc5Cl)CC4)c3n2)cc1 [Compound 669, 1-[4-(1-{1-[(2-chloropyridin-3-yl)carbonyl]piperidin-4-yl}-4-morpholin-4-yl-1H-pyrazolo[3,4-d]pyrimidin-6-yl)phenyl]-3-methylurea]		0.46 µM
0.33 µM	0.119 µM		CNC(=O)Nc1ccc(-c2nc(N3CCOCC3)c3cnn(C4CCN(C(=O)c5ccc(C)nc5)CC4)c3n2)cc1 [Example 420, 1-methyl-3-[4-(1-{1-[(6-methylpyridin-3-yl)carbonyl]piperidin-4-yl}-4-morpholin-4-yl-1H-pyrazolo[3,4-d]pyrimidin-6-yl)phenyl]urea]	0.3 µM	
0.1 µM	0.38 µM		O=C(NCCO)Nc1ccc(-c2nc(N3CCOCC3)c3cnn(C4CCN(CC(F)(F)F)CC4)c3n2)cc1 [Compound 784, 1-(2-hydroxyethyl)-3-(4-{4-morpholin-4-yl-1-[1-(2,2,2-trifluoroethyl)piperidin-4-yl]-1H-pyrazolo[3,4-d]pyrimidin-6-yl}phenyl)urea]	1.05 µM	
0.027 µM	0.016 µM		O=C(Nc1ccccc1)Nc1ccc(-c2nc(N3CCOCC3)c3cnn(C4CCN(C(=O)c5ccccc5)CC4)c3n2)cc1 [Example 378, 1-{4-[1-(1-benzoylpiperidin-4-yl)-4-morpholin-4-yl-1H-pyrazolo[3,4-d]pyrimidin-6-yl]phenyl}-3-phenylurea]	0.1 µM	
1.1 µM	2.05 µM		Nc1ccc(-c2nc(N3CCOCC3)c3cnn(C4CCC5(CC4)OCCO5)c3n2)cc1 [Compound 320, 4-[1-(1,4-dioxaspiro[4.5]dec-8-yl)-4-morpholin-4-yl-1H-pyrazolo[3,4-d]pyrimidin-6-yl]aniline]	7.2 µM	
0.047 µM	0.00175 µM		CCn1nc(C#CCO)c2c(N3CCOCC3)nc(-c3ccc(NC(=O)Nc4cccnc4)cc3)nc21 [Compound 956, 1-{4-[1-ethyl-3-(3-hydroxyprop-1-yn-1-yl)-4-morpholin-4-yl-1H-pyrazolo[3,4-d]pyrimidin-6-yl]phenyl}-3-pyridin-3-ylurea]	0.09 µM	
1.3 µM	5.03 µM		COC(=O)Nc1ccc(-c2nc(N3CCOCC3)c3cnn(C4CCN(C(=O)OC(C)(C)C)CC4)c3n2)cc1 [Compound 772, tert-butyl 4-(6-{4-[(methoxycarbonyl)amino]phenyl}-4-morpholin-4-yl-1H-pyrazolo[3,4-d]pyrimidin-1-yl)piperidine-1-carboxylate]	5.5 µM	
0.027 µM	0.009 µM		O=C(Nc1ccc(-c2nc(N3CCOCC3)c3cnn(C4CCN(Cc5cccnc5)CC4)c3n2)cc1)Nc1cccs1 [Example 404, 1-(4-{4-morpholin-4-yl-1-[1-(pyridin-3-ylmethyl)piperidin-4-yl]-1H-pyrazolo[3,4-d]pyrimidin-6-yl}phenyl)-3-(2-thienyl)urea]	0.1 µM	
0.74 µM	2.02 µM		O=C(c1ccc(F)nc1)N1CCC(n2ncc3c(N4CCOCC4)nc(-c4ccc5[nH]ccc5c4)nc32)CC1 [Compound 201]	3 µM	
0.27 µM	0.169 µM		CNC(=O)Nc1ccc(-c2nc(N3CCOCC3)c3cnn([C@H]4CCCN(C(=O)OC(C)(C)C)C4)c3n2)cc1 [Compound 872, tert-butyl (3S)-3-(6-{4-[(methylcarbamoyl)amino]phenyl}-4-morpholin-4-yl-1H-pyrazolo[3,4-d]pyrimidin-1-yl)piperidine-1-carboxylate]	1 µM	
7.6 µM	0.549 µM		CC(C)(C)OC(=O)N1CCC[C@H](n2ncc3c(N4CCOCC4)nc(-c4ccc(N)cc4)nc32)C1 [Compound 870, tert-butyl (3S)-3-[6-(4-aminophenyl)-4-morpholin-4-yl-1H-pyrazolo[3,4-d]pyrimidin-1-yl]piperidine-1-carboxylate]	26 µM	
10 µM	0.181 µM		CNCCOC(=O)N1CCC(n2ncc3c(N4CCOCC4)nc(-c4ccc(NC(=O)NC)cc4)nc32)CC1 [Compound 802, 2-(methylamino)ethyl 4-(6-{4-[(methylcarbamoyl)amino]phenyl}-4-morpholin-4-yl-1H-pyrazolo[3,4-d]pyrimidin-1-yl)piperidine-1-carboxylate]	5.5 µM	
0.15 µM	0.084 µM		CNC(=O)Nc1ccc(-c2nc(N3CCOCC3)c3cnn(C4CCN(C(=O)c5ccc(Cl)nc5)CC4)c3n2)cc1 [Example 424, 1-[4-(1-{1-[(6-chloropyridin-3-yl)carbonyl]piperidin-4-yl}-4-morpholin-4-yl-1H-pyrazolo[3,4-d]pyrimidin-6-yl)phenyl]-3-methylurea]	0.4 µM	
3 µM	0.659 µM		CCOC(=O)Nc1ccc(-c2nc(N3CCOCC3)c3cnn(C4CCN(Cc5ccccc5)CC4)c3n2)cc1 [Compound 207, ethyl {4-[1-(1-benzylpiperidin-4-yl)-4-morpholin-4-yl-1H-pyrazolo[3,4-d]pyrimidin-6-yl]phenyl}carbamate]	5.2 µM	
1.1 µM	0.259 µM		O=C(NO)Nc1ccc(-c2nc(N3CCOCC3)c3cnn(C4CCN(Cc5cccnc5)CC4)c3n2)cc1 [Compound 317, 1-hydroxy-3-(4-{4-morpholin-4-yl-1-[1-(pyridin-3-ylmethyl)piperidin-4-yl]-1H-pyrazolo[3,4-d]pyrimidin-6-yl}phenyl)urea]	1.5 µM	
< 0.027 µM	0.49 µM		CCNC(=O)Nc1ccc(-c2nc(N3CCOCC3)c3cnn(C4CCN(C(=O)OC)CC4)c3n2)cc1 [Compound 731, methyl 4-(6-{4-[(ethylcarbamoyl)amino]phenyl}-4-morpholin-4-yl-1H-pyrazolo[3,4-d]pyrimidin-1-yl)piperidine-1-carboxylate]	0.07 µM	
0.00077 µM	0.026 µM		COC(=O)N1CCC(n2ncc3c(N4CCOCC4)nc(-c4ccc(NC(=O)Nc5ccc(CCN6CCCCC6)cc5)cc4)nc32)CC1 [Compound 915, methyl 4-{4-morpholin-4-yl-6-[4-({[4-(2-piperidin-1-ylethyl)phenyl]carbamoyl}amino)phenyl]-1H-pyrazolo[3,4-d]pyrimidin-1-yl}piperidine-1-carboxylate]	0.025 µM	
0.4 µM	0.071 µM		CNC(=O)Nc1ccc(-c2nc(N3CCOCC3)c3cnn(C4CCN(C(=O)N5CCN(C)CC5)CC4)c3n2)cc1 [Compound 578, 1-methyl-3-[4-(1-{1-[(4-methylpiperazin-1-yl)carbonyl]piperidin-4-yl}-4-morpholin-4-yl-1H-pyrazolo[3,4-d]pyrimidin-6-yl)phenyl]urea]	0.7 µM	
60 µM	1.03 µM		O=C1Cc2cc(-c3nc(N4CCOCC4)c4cnn(-c5ccccc5)c4n3)ccc2N1 [Compound 433, 5-(4-morpholin-4-yl-1-phenyl-1H-pyrazolo[3,4-d]pyrimidin-6-yl)-1,3-dihydro-2H-indol-2-one]	60 µM	
0.17 µM	0.173 µM		O=C(Nc1ccccc1)Nc1cc(F)c(-c2nc(N3CCOCC3)c3cnn(C4CCN(C(=O)c5cccnc5)CC4)c3n2)cc1F [Example 469, 1-(2,5-difluoro-4-{4-morpholin-4-yl-1-[1-(pyridin-3-ylcarbonyl)piperidin-4-yl]-1H-pyrazolo[3,4-d]pyrimidin-6-yl}phenyl)-3-phenylurea]	0.6 µM	
12 µM	9 µM		CN(C)CC(=O)Nc1ccc(-c2nc(N3CCOCC3)c3cnn(C4CCCCO4)c3n2)cc1 (stereo not drawn) [Compound 521, N2,N2-dimethyl-N-{4-[4-morpholin-4-yl-1-(tetrahydro-2H-pyran-2-yl)-1H-pyrazolo[3,4-d]pyrimidin-6-yl]phenyl}glycinamide]	40 µM	
